Assay results: patent US11730725B2 (Tesaro, Inc., priority 2017, dated 2023)
Where two headings read alike, the source gives them in different places.

Tests used:
[1] = drug substance, crystalline solid
tumor models [2] = test: animal or person; conditions: read-out: PARP inhibition
tumor models [3] = test system: tumor models
[4] = test system: platinum-sensitive recurrent epithelial ovarian, fallopian tube, or primary peritoneal cancer; conditions: niraparib vs placebo
From the text: All patients had received at least two prior platinum-containing regimens and were in response (complete or partial) to their most recent platinum-based regimen. Eligible patients were assigned to one of two cohorts based on the results of a germline BRCA mutation test. […] Randomization occurred within 8 weeks of the last dose of the most recent platinum-containing regimen. […] Clinic visits occurred each cycle (4 weeks±3 days). […] Prior to unblinding of the study, tumors of patients randomized to the non-gBRCAmut cohort were tested for the presence of homologous recombination deficiency (HRD) using the Myriad myChoice® HRD test, which evaluates three independent biomarkers of tumor genome instability: loss of heterozygosity, telomeric allelic imbalance, and large-scale state transitions. Tumors with homologous recombination deficiencies and those with somatic BRCA mutations were defined as HRD positive (HRDpos). The primary efficacy analysis for PFS was prospectively defined and assessed for the gBRCAmut cohort. The primary efficacy analysis for PFS was prospectively defined and assessed for the non-gBRCAmut cohort with a hierarchical testing schema. In the first step, PFS was assessed in the group of patients with HRDpos tumors and if significant, PFS was assessed in the overall non-gBRCAmut cohort. Secondary efficacy endpoints included chemotherapy-free interval (CFI), time to first subsequent therapy (TFST), PFS after the first subsequent therapy (PFS2), time to second subsequent therapy (TSST) and OS (overall survival).

| Compound | hygroscopicity [1] | inhibition at 50 mg/kg (tumor models [2]) [%] | tumor regression (tumor models [3]; 50 mg/kg, daily dosing) | tumor regression (tumor models [3]; dose of 75 mg/kg, same model) | tumor regression (tumor models [3]; dosing switched from 75 mg/kg to 50 mg/kg) | CFI HR ([4]; gBRCAmut cohort) | TFST HR ([4]; gBRCAmut cohort) | CFI HR ([4]; non-gBRCAmut cohort) | TFST HR ([4]; non-gBRCAmut cohort) |
| --- | --- | --- | --- | --- | --- | --- | --- | --- | --- |
| Cc1ccc(S(=O)(=O)O)cc1.NC(=O)c1cccc2cn(-c3ccc([C@@H]4CCCNC4)cc3)nc12 [Niraparib tosylate monohydrate, 2-{4-[(3S)-piperidin-3-yl]phenyl}-2H-indazole 7-carboxamide 4-methylbenzenesulfonate hydrate (1:1:1)] | non-hygroscopic |  |  |  |  |  |  |  |  |
| NC(=O)c1cccc2cn(-c3ccc([C@@H]4CCCNC4)cc3)nc12 [Niraparib] |  | > 90 | tumor regression | did not result in tumor regression | tumor regression was achieved | 0.26 | 0.31 | 0.50 | 0.55 |
